Our source for the MIC values is US4698352A, “4-oxo-1,4-dihydronicotinic acid derivatives, salts thereof, and antibacterial agents containing the same” (Toyama Chemical Co., Ltd., priority 1982, dated 1987).

The term MIC denotes the lowest concentration found to suppress growth.

What all share (test): Antibacterial activity (MIC), agar dilution
Assay type in all cases: cell-based

The test system of assay [1] is Pro. vulgaris GN76**. The conditions noted are these: Proteus vulgaris, 20 h; Pro. vulgaris GN76, cephalospolinase-producing; 10^6 cells per ml; read-out: MIC. An excerpt:
(§1) The amount of bacteria inoculated was 10^4 cells per plate (10^6 cells per ml).
(§2) ** Cephalospolinase-producing bacteria

Assay [2] relates to E. coli GN5482**. The conditions noted are these: Escherichia coli, 20 h; E. coli GN5482, cephalospolinase-producing; 10^6 cells per ml; read-out: MIC.
From the text: as §1, §2

The test system of assay [3] is Ps. aeruginosa GN918**. The conditions noted are these: Pseudomonas aeruginosa, Ps. aeruginosa GN918, cephalospolinase-producing, 10^6 cells per ml.
From the text: as §1, §2

In assay [4] the test system is St. aureus F-137*. The settings on record: Staphylococcus aureus, 20 h, St. aureus F-137, penicillinase-producing; 10^6 cells per ml; read-out: MIC.
From the text: as §1
(§3) * Penicillinase-producing bacteria

In assay [5] the test system is E. coli TK-3*. The settings on record: Escherichia coli, 20 h, E. coli TK-3, penicillinase-producing; 10^6 cells per ml; read-out: MIC.
From the text: as §1, §3

Assay [6] concerns Ps. aeruginosa GN3379*. The conditions noted are these: Pseudomonas aeruginosa, 20 h; Ps. aeruginosa GN3379, penicillinase-producing; 10^6 cells per ml; read-out: MIC.
From the text: as §1, §3

Assay [7] deals with Kl. pneumoniae Y-4*. The settings on record: Klebsiella pneumoniae, 20 h, Kl. pneumoniae Y-4, penicillinase-producing; 10^6 cells per ml; read-out: MIC.
From the text: as §1, §3

Assay [8] relates to Pro. morganii T-216. The conditions noted are these: Morganella morganii, 37° C.
From the text: as §1

For assay [9], the system named is Pro. vulgaris GN3027. The settings on record: Proteus vulgaris, GN3027, 20 h, Pro. vulgaris GN3027; 10^6 cells per ml; 37° C., 20 hours; read-out: MIC.
From the text: as §1

Assay [10] deals with Kl. pneumoniae Y-41. The settings on record: Klebsiella pneumoniae, Y41, 10^6 cells per ml, 37° C., 20 hours, read-out: MIC.
From the text: as §1

In assay [11] the test system is Ps. aeruginosa S-68. The settings on record: Pseudomonas aeruginosa, S68; Ps. aeruginosa S-68; 10^6 cells per ml; 37° C., 20 hours; read-out: MIC.
From the text: as §1

In assay [12] the test system is E. coli NIHJ JC-2. The settings on record: Escherichia coli, NIHJJC2, 20 h, E. coli NIHJ JC-2; 10^6 cells per ml; 37° C., 20 hours; read-out: MIC.
From the text: as §1

In assay [13] the test system is E. coli TK-111. The settings on record: Escherichia coli, TK111, 20 h, E. coli TK-111; 10^6 cells per ml; 37° C., 20 hours; read-out: MIC.
From the text: as §1

For assay [14], the system named is Kl. pneumoniae Y-50. The settings on record: Klebsiella pneumoniae, Y50, 20 h, 10^6 cells per ml, 37° C., read-out: MIC.
From the text: as §1

Assay [15] deals with Ps. aeruginosa IFO3445. The settings on record: Pseudomonas aeruginosa; Ps. aeruginosa IFO3445; 10^6 cells per ml; 37° C., 20 hours; read-out: MIC.
From the text: as §1

Assay [16] has as its system Ent. cloacae IID977. The conditions noted are these: Enterobacter cloacae, IID977, 20 h, Ent. cloacae IID977; 10^6 cells per ml; 37° C., 20 hours; read-out: MIC.
From the text: as §1

In assay [17] the test system is Pro. mirabilis T-111. The conditions noted are these: Proteus mirabilis, 37° C.
From the text: as §1

In assay [18] the test system is St. aureus FDA209P. The conditions noted are these: Staphylococcus aureus, FDA209P, 20 h, St. aureus FDA209P; 10^6 cells per ml; 37° C., 20 hours; read-out: MIC.
From the text: as §1

Assay [19] has as its system Aci. antitratus A-6. The conditions noted are these: 20 h, Aci. antitratus A-6; 10^6 cells per ml; 37° C., 20 hours; read-out: MIC.
From the text: as §1

[20] abbreviates: T216, 10^6 cells per ml, 20 hours, read-out: MIC.
The mark [21] stands for this setting: T111, 10^6 cells per ml, 20 hours, read-out: MIC.

Each structure is given as a SMILES string. ≈ marks a conversion by molar mass, not a printed value. Like-named read-outs stand apart in the source and are kept apart here. Some results are limits rather than exact numbers.

With `COc1ccc(-c2cc(=O)c(C(=O)O)cn2-c2ccc(O)cc2C)cc1`, the minimal inhibitory concentration (MIC) in assay [1] was 0.39 µg/mL (≈ 1.11 µM); in assay [2], not above 0.05 µg/mL; in [3] (20 h, read-out: MIC), 1.56 µg/mL (≈ 4.44 µM); in [4], 0.1 µg/mL (≈ 0.285 µM); in assay [5], 0.2 µg/mL (≈ 0.569 µM); in assay [6] it was 12.5 µg/mL (≈ 35.6 µM). The MIC in assay [7] was 0.78 µg/mL (≈ 2.22 µM); in assay [8] (setting [20]) it was 1.56 µg/mL (≈ 4.44 µM); in assay [9], not above 0.05 µg/mL; in [10], 0.78 µg/mL (≈ 2.22 µM); in assay [11] it was 3.13 µg/mL (≈ 8.91 µM); in [12], 0.1 µg/mL (≈ 0.285 µM). The MIC came out at 0.05 µg/mL (≈ 0.142 µM) in assay [13]; 0.1 µg/mL (≈ 0.285 µM) in [14]; 3.13 µg/mL (≈ 8.91 µM) in assay [15]; 0.39 µg/mL (≈ 1.11 µM) in assay [16]; 1.56 µg/mL (≈ 4.44 µM) in assay [17] (setting [21]); 0.1 µg/mL (≈ 0.285 µM) in [18]. For the same compound, the MIC in assay [19] came to 0.2 µg/mL (≈ 0.569 µM).

Take `CNc1ccc(-c2cc(=O)c(C(=O)O)cn2-c2ccc(O)cc2)cc1C`: the MIC in assay [1] is 0.78 µg/mL (≈ 2.23 µM); in [2], not above 0.05 µg/mL; in assay [3] (20 h, read-out: MIC), 0.78 µg/mL (≈ 2.23 µM); in assay [4], 0.39 µg/mL (≈ 1.11 µM); in assay [5], 0.39 µg/mL (≈ 1.11 µM); in [6], 6.25 µg/mL (≈ 17.8 µM). In addition, the MIC in assay [7] was 1.56 µg/mL (≈ 4.45 µM); in [8] (T216, 20 h, 10^6 cells per ml) it was 1.56 µg/mL (≈ 4.45 µM); in [9], 0.39 µg/mL (≈ 1.11 µM); in [10] it was 1.56 µg/mL (≈ 4.45 µM); in assay [11], 3.13 µg/mL (≈ 8.93 µM); in assay [12], 0.39 µg/mL (≈ 1.11 µM). The MIC in assay [13] is 0.1 µg/mL (≈ 0.285 µM); in assay [14] it was 0.39 µg/mL (≈ 1.11 µM); in [15], 3.13 µg/mL (≈ 8.93 µM); in [16], 0.78 µg/mL (≈ 2.23 µM); in assay [17] (setting [21]), 3.13 µg/mL (≈ 8.93 µM); in assay [18], 0.39 µg/mL (≈ 1.11 µM). Also, the MIC in assay [19] was found to be 0.78 µg/mL (≈ 2.23 µM).

Take `Cn1ccc2cc(-c3cc(=O)c(C(=O)O)cn3-c3ccc(F)cc3)ccc21`: the minimal inhibitory concentration (MIC) in [1] is 0.78 µg/mL (≈ 2.15 µM); in assay [2], not above 0.05 µg/mL; in [3] (20 h, read-out: MIC), 0.78 µg/mL (≈ 2.15 µM); in assay [4] it was 0.39 µg/mL (≈ 1.08 µM); in [5] it was 1.56 µg/mL (≈ 4.31 µM); in assay [6], 25 µg/mL (≈ 69 µM). Moreover, the MIC in assay [7] was found to be 3.13 µg/mL (≈ 8.64 µM); in assay [8] (setting [20]) it was 1.56 µg/mL (≈ 4.31 µM); in [9] it was 0.2 µg/mL (≈ 0.552 µM); in assay [10], 3.13 µg/mL (≈ 8.64 µM); in assay [11] it was 12.5 µg/mL (≈ 34.5 µM); in assay [12], 0.39 µg/mL (≈ 1.08 µM). For the same compound, the MIC in assay [13] is 0.1 µg/mL (≈ 0.276 µM); in [14], 0.78 µg/mL (≈ 2.15 µM); in assay [15], 12.5 µg/mL (≈ 34.5 µM); in [16], 1.56 µg/mL (≈ 4.31 µM); in assay [17] (T111, 20 h, 10^6 cells per ml) it was 3.13 µg/mL (≈ 8.64 µM); in [18], 0.39 µg/mL (≈ 1.08 µM). Besides, the MIC in [19] stood at 0.1 µg/mL (≈ 0.276 µM).

As to `Cc1cc(O)ccc1-n1cc(C(=O)O)c(=O)cc1-c1ccccc1`, the MIC is 0.2 µg/mL (≈ 0.622 µM) in assay [1]; not above 0.05 µg/mL in assay [2]; 1.56 µg/mL (≈ 4.85 µM) in assay [3] (GN918, 20 h); 0.2 µg/mL (≈ 0.622 µM) in assay [4]; 0.39 µg/mL (≈ 1.21 µM) in [5]; 12.5 µg/mL (≈ 38.9 µM) in [6]. The MIC in assay [7] was 1.56 µg/mL (≈ 4.85 µM); in assay [8] (setting [20]), 0.39 µg/mL (≈ 1.21 µM); in [9], not above 0.05 µg/mL; in assay [10], 0.78 µg/mL (≈ 2.43 µM); in assay [11], 3.13 µg/mL (≈ 9.74 µM); in assay [12], 0.2 µg/mL (≈ 0.622 µM). Further, the MIC came out at 0.1 µg/mL (≈ 0.311 µM) in assay [13]; 0.1 µg/mL (≈ 0.311 µM) in assay [14]; 6.25 µg/mL (≈ 19.5 µM) in assay [15]; 0.39 µg/mL (≈ 1.21 µM) in [16]; 0.78 µg/mL (≈ 2.43 µM) in [17] (setting [21]); 0.2 µg/mL (≈ 0.622 µM) in [18]. Further, the MIC in assay [19] was 0.78 µg/mL (≈ 2.43 µM).
